Results published in US20180251431A1 (VERTEX PHARMACEUTICALS INCORPORATED, priority 2016, published 2018).
Where two headings read alike, the source gives them in different places.

Experiments:
[1] = Body weight and adverse effects during treatment in the thermal sensitivity studies; assay type: in vivo, mouse; conditions: ABCD1 KO mice, prophylactic (5 or 20 mg/kg) and therapeutic (32 or 64 mg/kg) PO QD experiments
Protocol: For the prophylactic study, mice were tested beginning at 10 months of age (before the loss of pain sensitivity) using doses of either 5 or 20 mg/kg. For the therapeutic study, mice were tested beginning at 18 months of age, after there was already a significant loss of pain sensitivity, using doses of either 32 or 64 mg/kg. […] The Plantar test (using a Hargreaves apparatus) was used and measured the latency to respond to a thermal stimulus using the following protocol. An individual mouse was placed into an individual compartment with a glass floor for about 10-15 minutes until they were settled. Each individual mouse was given three trials with an infrared source on each hind paw (alternated hind paws each time, and waited 5 minutes between each trial). The infrared source was placed under the glass floor and was positioned by the operator directly beneath the hind paw. A trial was commenced by depressing a key/button which turned on the infrared source and started a digital timer. When a response was observed (paw withdrawal), the key/button was released and the latency to respond was recorded (in seconds).

HEK293 cells = assay: HEK293 VLCFA-LPC IC50 determination (13C-labeled C26:0 LPC by UHPLC/MS); assay type: cell-based, human; conditions: Homo sapiens
Method in brief: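 Suspension HEK293 cells (final 0.5 million/mL after mixing with equal volume) incubated 48 hours with compound plus 13C-acetate (1.0 mg/mL in added media), shaking at 37° C. Lipids extracted with hexane/isopropanol or methanol, C13:0 LPC standard. UHPLC/MS of 13C-labeled C26:0 LPC (638.500/104.100 m/z); IC50 by four-parameter fit.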

[2] = Metabolic intrinsic clearance in monkey hepatocytes; assay type: in vitro ADME, cynomolgus monkey; conditions: cryopreserved hepatocytes in suspension, pH 7.5, 0.5 million cells/mL, incubation for 4 hours
Protocol: The metabolic intrinsic clearance (CLint) of Compound 87 was determined in human, monkey, dog, rat, and mouse hepatocytes. Cryopreserved human hepatocytes (Lot Hue50c), monkey hepatocytes (cynomolgus; Lot Cy328), dog hepatocytes (beagle, Lot Db235), rat hepatocytes (Sprague Dawley; NNH), and mouse hepatocytes (CD-1; Lot Mc522) were obtained from ThermoFisher (Paisley, UK). In separate experiments, compound 87 (1 μM) was incubated with hepatocytes from each species (0.5 million cells/mL, suspension) in Dulbecco's Modified Eagle's Medium (DMEM) supplemented with 4-(2-Hydroxyethyl)piperazine-1-ethanesulfonic acid (HEPES, 9 mM) and fructose (2.2 mM) (pH 7.5). Samples were quenched with acetonitrile and analyzed by LC-MS/MS. The mean CLint for Compound 87 in human, monkey, dog, rat, and mouse hepatocytes after incubation for 4 hours was determined to be ≤2.5, ≤2.5, 7.2, 23.6 and 10.7 μL/min/million cells. Based on these date, Compound 87 was low to moderately metabolized in hepatocytes in mouse, rat, dog, monkey, and human, and the rank order of stability at […] was approximately human>monkey>dog>mouse>rat. […] The metabolic stability of Compound 87 was not expected.

With `O=C(Nc1ccn(-c2ccnc(F)c2)n1)C1(c2ccccc2F)CC1` [Compound 87, 1-(2-fluorophenyl)-N-[1-(2-fluoro-4-pyridyl)pyrazol-3-yl]cyclopropanecarboxamide] the “body weight and adverse effects during treatment” value [1] was “did not have a significant drop in body weight or any other noticeable adverse effect”, the IC50 (HEK293 cells; HEK293, 48 h, HEK293, half maximal reduction in C26:0 LPC, about 48 hours, read-out: IC50) was 8 nM and the IC50 (HEK293 cells; HEK293, HEK293 cells, average of one or more replicates, read-out: Average HEK293 IC50) was 13 nM. It also gave a hepatocyte CLint at 1 μM [2] of at most 2.5 µL/min/1e6 cells.
